Results reported in patent publication US6294152A, “Iron(III) complexes as contrast agents for image enhancement in magnetic resonance imaging” (The University of Toledo, priority 1999, dated 2001).
Like-named read-outs stand apart in the source and are kept apart here.

Experiments:
mice [1] = conditions: metal chloride salts in aqueous solution, i.p.; cited from earlier work
[2] = Relaxivity in Water and Plasma; assay type: physicochemical; conditions: 20 MHz, 37° C; for relaxivity r1 (plasma): in plasma; for relaxivity r1 (H2O): in water
Experimental: Relaxivity values (mM^-1 s^-1) have been determined in water and in plasma at 20 MHz and 37° C.

mice [3] = assay: Toxicity Studies in Mice, LD50 i.v.; assay type: in vivo
From the text: The LD50 value of the tris(ligand) iron(III) complex of ligand IX, Fe-DIOLMAL, has been determined i.v. in mice and found to be ca. 20.0 mmol/kg bw.

Compound	LD50 (mice [1]) [mmol/kg]	relaxivity r1 (plasma) [2] [mM⁻¹ s⁻¹]	relaxivity r1 (H2O) [2] [mM⁻¹ s⁻¹]	LD50 (mice [3])
[Mn+2] [manganese]	1.5			
Cc1c([O-])c(=O)ccn1CCO.Cc1c([O-])c(=O)ccn1CCO.Cc1c([O-])c(=O)ccn1CCO.[Fe+3] [Fe-ETOHMAL]		2.0	1.7	ca. 7.5 mmol/kg bw
Cc1c([O-])c(=O)ccn1CCC(=O)O.Cc1c([O-])c(=O)ccn1CCC(=O)O.Cc1c([O-])c(=O)ccn1CCC(=O)O.[Fe+3] [Fe-BETALA]		2.1	1.8	
[Gd] [gadolinium]	1.4			
iron	1.6			
